In US20220280543A1, “DDX17 AND NLRC4 TARGETING FOR INFLAMMATORY DISEASES” (University of Virginia Patent Foundation, priority 2019, published 2022):

Tests used:
RPE degeneration = experiment: Alu RNA induced RPE degeneration in mice, fundus images and ZO-1 staining; assay type: in vivo; settings: subretinal, WT mice (FIG. 26)
Protocol: FIGS. 25A and 25B. NLRC4 knockdown blocks Alu RNA (SEQ ID NO: 86) induced ASC oligomerization and RPE degeneration. Human RPE cell treated with siRNA target on NLRC4 (SMARTPOOL siRNA for NLRC4: CAACUGGGCUCCUCUGUAA; SEQ ID NO: 93) and NAIP (SMARTPOOL siRNA for NAIP: GUAAAGAGCUAUAUGGAUA; SEQ ID NO: 94), 24 hours later, treated with Alu RNA (SEQ ID NO: 86 at 100 pmol) FIG. 25A. […] The band of ASC oligomers was indicated by black arrow. […] The hyperdense areas due to the RPE degeneration in fundus images and ZO-1 disorganizations in RPE sheet are indicated by white arrows.
FIG. 26. […] Wilde type of C57/B6 mice were intravitreally injected with siRNA target on Ddx17 (siRNA for Ddx17: GGCUAGAUGUGGAAGAUGU; SEQ ID NO: 95), and two days later, Nlrc4^−/−, Naip1-6^−/−, mice and Ddx17 knockdown mice were subretinally injected with Alu RNA (SEQ ID NO: 86). […] The hyperdense areas due to the RPE degeneration in fundus images and ZO-1 disorganizations in RPE sheet are indicated by white arrows.
Next, we asked whether Alu RNA (SEQ ID NO: 86) also triggered NLRC4 inflammasome activation in human RPE cells. We performed immunofluorescence staining experiments to examine whether Alu RNA (SEQ ID NO: 86) can induce NLRC4 speck formation in human RPE cells. We noticed punctate structures resembling specks of NLRC4 in human RPE cells in response to Alu RNA (SEQ ID NO: 86) treatment (FIG. 24A). […] We further investigated downstream events of NLRC4 inflammasome activation by studying NLRC4-induced ASC oligomerization, a critical step involved in caspase-1 cleavage. NLRC4 siRNA, when co-administered with Alu RNA (SEQ ID NO: 86), blocked ASC oligomerization in vitro (FIG. 25A) and RPE degeneration in vivo (FIG. 25B).
We delivered Alu RNA (SEQ ID NO: 86) or Alu RNA (SEQ ID NO: 86)+siDDX17 subretinally in WT or NLRC4 KO or NAIP1-6 KO mice and examined for RPE degeneration using fundus photos and ZO-1 staining as described previously.

DDX17 = DDX17 (Homo sapiens, UniProt Q92841); experiment: DDX17 translocation in THP-1 cells, cell fractionation and immunoblot; assay type: cell-based; settings: THP-1, Alu RNA 100 pmol (FIG. 36)
DDX17, sequence (Q92841 whole entry, species assumed): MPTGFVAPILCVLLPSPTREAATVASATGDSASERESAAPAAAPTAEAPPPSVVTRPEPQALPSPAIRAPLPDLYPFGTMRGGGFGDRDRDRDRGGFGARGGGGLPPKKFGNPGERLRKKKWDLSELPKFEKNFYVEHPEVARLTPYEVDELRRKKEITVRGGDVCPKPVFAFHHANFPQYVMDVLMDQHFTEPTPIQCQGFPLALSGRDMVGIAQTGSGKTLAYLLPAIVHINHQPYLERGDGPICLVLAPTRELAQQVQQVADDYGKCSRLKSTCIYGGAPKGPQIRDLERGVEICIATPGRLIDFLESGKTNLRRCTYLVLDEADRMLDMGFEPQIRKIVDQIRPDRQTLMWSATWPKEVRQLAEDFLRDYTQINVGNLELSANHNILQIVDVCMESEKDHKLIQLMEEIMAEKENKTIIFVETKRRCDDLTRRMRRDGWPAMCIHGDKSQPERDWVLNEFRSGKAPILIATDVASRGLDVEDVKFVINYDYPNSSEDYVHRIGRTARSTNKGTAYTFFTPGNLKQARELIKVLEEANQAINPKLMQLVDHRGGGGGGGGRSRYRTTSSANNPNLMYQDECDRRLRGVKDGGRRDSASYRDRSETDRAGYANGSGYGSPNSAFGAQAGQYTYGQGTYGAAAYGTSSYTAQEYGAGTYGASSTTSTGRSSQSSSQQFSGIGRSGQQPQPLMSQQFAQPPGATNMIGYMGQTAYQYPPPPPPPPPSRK
Excerpt: FIG. 36. Alu RNA (SEQ ID NO: 86) induces DDX17 translocation in human cells. Human monocytes (THP-1) were transfected with Alu RNA (SEQ ID NO: 86 at 100 pmol) using LIPOFECTAMINE™ 3000 brand transfection reagent (Lipo; ThermoFisher Scientific). Cell lysates were collected and subjected to cell fractionation. Immunoblots of DDX17 and Histone H3 were used to evaluate the subcellular distribution of DDX17. […] The bands of DDX17 in cell nucleus and cytoplasm were indicated by black arrows.
Human monocytes (THP-1) were treated with Alu RNA (SEQ ID NO: 86 at 100 pmol). Cell lysates were collected and subjected to cell fractionation. Immunoblots of DDX17 and Histone H3 were used to evaluate the subcellular distribution of DDX17.

ASC specks = experiment: SINE RNA induced ASC specks in BMDM, immunofluorescence; assay type: cell-based, mouse; settings: BMDMs, transfection vs Mock (FIG. 3A)
Protocol: FIGS. 3A and 3B. SINE RNA-induced ASC oligomerization is dependent on NLRC4 (BMDM). FIG. 3A. Immunofluorescence images of endogenous ASC specks and NLRC4 puncta in BMDMs after transfected with Alu (SEQ ID NO: 86) or B2 (SEQ ID NO: 88) RNA or transfection reagents only (Mock). […] Moreover, NLRC4 proteins assembled as puncta, and co-resided with ASC specks. FIG. 3B. ASC oligomerizations were evaluated in wild-type and Nlrc4^−/− BMDMs through cross-linking and western blot. […] The bands of oligomeric ASC protein were indicated by black arrow.
The activated NLRC4 inflammasome undergoes oligomerization by assembling into high-molecular mass multiprotein complexes. We first investigated in situ assembling of NLRC4 and apoptosis speck (ASC) like protein complexes in response to SINE RNA treatment of BMDMs. Immunofluorescence studies show increased NLRC4 and ASC specks in SINE RNA-treated BMDMs compared to mock-treated cells (FIG. 3A). To assess NLRC4 inflammasome assembly, WT and NLRC4 KO BMDM cells were treated with Alu RNA (SEQ ID NO: 86). Disuccinimidyl suberate (DSS) cross-linked lysates were resolved using denaturing SDS-PAGE to detect ASC oligomers and cell lysates were resolved using native polyacrylamide gel electrophoresis (NATIVE-PAGE) to detect NLRC4 oligomerization. […] NLRC4/ASC oligomerization is essential for the cleavage of pro-caspase-1 into its active form p20 and IL-1β release.

[1] = tested on: NLRC4 phosphorylation (site S533); experiment: SINE RNA induced NLRC4 phosphorylation (S533) in BMDM, Western blot; assay type: cell-based, mouse; settings: SINE RNAs each at 100 pmol, polyI:C 10 μg/ml (FIG. 1)
Protocol: FIG. 1. SINE RNA induced NLRC4 phosphorylation (site S533) in mice macrophage (BMDM). Mouse bone marrow derived macrophage (BMDM) were treated with SINE RNAs (Alu (SEQ ID NO: 86), B1 (SEQ ID NO: 87), and B2 (SEQ ID NO: 88), each at 100 pmol), and polyI:C (10 μg/ml). Phosphorylated Nlrc4 (p-Nlrc4) and total Nlrc4 (t-Nlrc4) were detected by Western blot. Actin is provided as a loading control. The p-NLRC4 bands were indicated by black arrow.
Previous studies have shown that NLRC4 inflammasome activation in response to Salmonella exposure requires two steps for its activation, phosphorylation on Ser533 residue of NLRC4 and NAIP mediated oligomerization of NLRC4. […] Moreover, treatment with SINE RNAs induced caspase-1 p20 cleavage, indicative of inflammasome activation (FIG. 2). For the subsequent experiments in this study, we used Alu RNA (SEQ ID NO: 86) as the stimulus to activate the NLRC4 inflammasome. To date, two kinases are reported to phosphorylate NLRC4 at S533: protein kinase C delta (PKCδ) and leucine rich repeat-containing kinase-2 (LRRK2). To explore the roles of these kinases in Alu RNA (SEQ ID NO: 86) induced NLRC4 phosphorylation, we pretreated BMDMs with pharmacological inhibitors of LRRK2 (GSK2578215A, GSK) and PKCδ (Rottlerin, Rot) respectively.

Alu RNA: human SINE RNA, SEQ ID NO: 86
RPE degeneration induced by Alu RNA (RPE degeneration): induced RPE degeneration
subcellular distribution of DDX17 (DDX17): induced DDX17 translocation from the nucleus to the cytoplasm
formation of ASC specks (ASC specks): induced the formation of ASC specks
NLRC4 phosphorylation on S533 in BMDMs [1]: induced
